US20220023258A1, “METHODS OF TREATING CONDITIONS RELATED TO THE S1P1 RECEPTOR” (Arena Pharmaceuticals, Inc., priority 2018, published 2022)
Where a name gives a salt, the structure may show the parent alone.

Test system: healthy adult subjects
Assay: Multiple ascending dose study: heart rate, blood pressure, QTc
Type: in vivo, human
Conditions: for Maximum post-dose QTc, On Treatment Mean (SD) / Maximum post-dose QTc, Change from Baseline Mean / Maximum post-dose QTc, Change from Baseline Median / Maximum post-dose QTc, Change from Baseline Min, Max: Day 1 to Day 23; for Minimum post-dose Diastolic BP, Change from Baseline Mean / Minimum post-dose Diastolic BP, Change from Baseline Median / Minimum post-dose Diastolic BP, Change from Baseline Min, Max / Minimum post-dose Diastolic BP, On Treatment Mean (SD) / Minimum post-dose Heart Rate, Change from Baseline Mean / Minimum post-dose Heart Rate, Change from Baseline Median / Minimum post-dose Heart Rate, Change from Baseline Min, Max / Minimum post-dose Heart Rate, On Treatment Mean (SD) / Minimum post-dose Systolic BP, Change from Baseline Mean / Minimum post-dose Systolic BP, Change from Baseline Median / Minimum post-dose Systolic BP, Change from Baseline Min, Max / Minimum post-dose Systolic BP, On Treatment Mean: Day 1 to Day 28
[1] = 0.35 mg for 7 days then 2.0 mg for 14 days
[2] = 0.5 mg for 7 days then 3.0 mg for 14 days

Description: A randomized, double-blind, placebo-controlled, sequential, ascending, multiple dose study to assess the safety, tolerability, and pharmacokinetics of the L-arginine salt of Compound 1 administered to healthy adult subjects was conducted. This study was designed to evaluate the safety, tolerability, pharmacokinetics, and pharmacodynamics of the L-arginine salt of Compound 1.
Cohort 1 was dosed with 0.7 mg (by administering two 0.35 mg formulations) for 21 days. Cohort 2 was dosed with 1.35 mg (by administering both a 0.35 mg formulation and a 1 mg formulation) for 21 days. Cohort 3 was dosed with 2.0 mg for 21 days. Cohort 4 was dosed with 0.35 mg for 7 days and then with 2.0 mg for 14 days. Cohort 5 was dosed with 0.5 for 7 days and then with 3.0 mg (by administering both a 1 mg formulation and a 2 mg formulation) for 14 days.
The following safety assessments were conducted: physical examinations with ophthalmoscopy, clinical laboratory tests (serum chemistry, coagulation, and urinalysis), vital signs, continuous telemetry (12 lead ECG), safety ECGs, pulmonary function testing (PFT), serum protein electrophoresis (SPEP) and serum immunoelectrophoresis (IEP), and adverse event reporting.

For `O=C(O)C[C@H]1CCc2c1[nH]c1ccc(OCc3ccc(C4CCCC4)c(C(F)(F)F)c3)cc21` [L-arginine salt of Compound 1], the “Maximum post-dose QTc, On Treatment Mean (SD)” value (“Maximum post-dose QTc … (SD)” below) (0.7 mg for 21 days) was 418.40 (16.56) MS, the “Maximum post-dose QTc, Change from Baseline Mean” value (1.35 mg for 21 days) was 8.20 MS and the “Maximum post-dose QTc, Change from Baseline Median” value (1.35 mg for 21 days) was 6.00 MS. For the same molecule, the “Maximum post-dose QTc, Change from Baseline Min, Max” value (1.35 mg for 21 days) was −5.00 to 25.00 MS, the “Maximum post-dose QTc … (SD)” value (1.35 mg for 21 days) was 423.60 (16.14) MS and the “Maximum post-dose QTc, Change from Baseline Mean” value (2.0 mg for 21 days) was 4.00 MS. The “Maximum post-dose QTc, Change from Baseline Median” value (2.0 mg for 21 days) was 4.50 MS, the “Maximum post-dose QTc, Change from Baseline Min, Max” value (2.0 mg for 21 days) was −8.00 to 13.00 MS and the “Maximum post-dose QTc … (SD)” value (2.0 mg for 21 days) was 421.20 (10.61) MS. The “Minimum post-dose Diastolic BP, Change from Baseline Mean” value [1] was −7.90 mmHg, the “Minimum post-dose Diastolic BP, Change from Baseline Median” value [1] was −6.00 mmHg and the “Minimum post-dose Diastolic BP, Change from Baseline Min, Max” value [1] was −19.00 to −1.00 mmHg. The “Minimum post-dose Diastolic BP, On Treatment Mean (SD)” value (from here on “Minimum post-dose Diastolic BP … (SD)”) [1] was 50.80 (5.65) mmHg, the “Minimum post-dose Heart Rate, Change from Baseline Mean” value [1] was −10.60 BPM and the “Minimum post-dose Heart Rate, Change from Baseline Median” value [1] was −7.00 BPM. For the same molecule, the “Minimum post-dose Heart Rate, Change from Baseline Min, Max” value [1] was −35.00 to 3.00 BPM, the “Minimum post-dose Heart Rate, On Treatment Mean (SD)” value (“Minimum post-dose Heart Rate … (SD)” below) [1] was 52.00 (4.74) BPM and the “Minimum post-dose Systolic BP, Change from Baseline Mean” value [1] was −13.00 mmHg. The “Minimum post-dose Systolic BP, Change from Baseline Median” value [1] was −13.00 mmHg, the “Minimum post-dose Systolic BP, Change from Baseline Min, Max” value [1] was −28.00 to 0.00 mmHg and the “Minimum post-dose Systolic BP, On Treatment Mean” value [1] was 94.30 mmHg. The “Minimum post-dose Diastolic BP, Change from Baseline Mean” value [2] was −6.30 mmHg, the “Minimum post-dose Diastolic BP, Change from Baseline Median” value [2] was −7.00 mmHg and the “Minimum post-dose Diastolic BP, Change from Baseline Min, Max” value [2] was −13.00 to 3.00 mmHg. For the same molecule, the “Minimum post-dose Diastolic BP … (SD)” value [2] was 50.20 (4.21) mmHg, the “Minimum post-dose Heart Rate, Change from Baseline Mean” value [2] was −7.30 BPM and the “Minimum post-dose Heart Rate, Change from Baseline Median” value [2] was −6.50 BPM. For the same molecule, the “Minimum post-dose Heart Rate, Change from Baseline Min, Max” value [2] was −14.00 to −2.00 BPM, the “Minimum post-dose Heart Rate … (SD)” value [2] was 53.80 (4.73) BPM and the “Minimum post-dose Systolic BP, Change from Baseline Mean” value [2] was −7.80 mmHg. For the same molecule, the “Minimum post-dose Systolic BP, Change from Baseline Median” value [2] was −5.00 mmHg, the “Minimum post-dose Systolic BP, Change from Baseline Min, Max” value [2] was −18.00 to 5.00 mmHg and the “Minimum post-dose Systolic BP, On Treatment Mean” value [2] was 93.20 mmHg. For the same molecule, the “Minimum post-dose Diastolic BP, Change from Baseline Mean” value (0.7 mg for 21 days) was −6.10 mmHg, the “Minimum post-dose Diastolic BP, Change from Baseline Median” value (0.7 mg for 21 days) was −6.00 mmHg and the “Minimum post-dose Diastolic BP, Change from Baseline Min, Max” value (0.7 mg for 21 days) was −16.00 to 2.00 mmHg. For the same molecule, the “Minimum post-dose Diastolic BP … (SD)” value (0.7 mg for 21 days) was 56.00 (8.31) mmHg, the “Minimum post-dose Heart Rate, Change from Baseline Mean” value (0.7 mg for 21 days) was −5.50 BPM and the “Minimum post-dose Heart Rate, Change from Baseline Median” value (0.7 mg for 21 days) was −5.00 BPM. For the same molecule, the “Minimum post-dose Heart Rate, Change from Baseline Min, Max” value (0.7 mg for 21 days) was −12.00 to −1.00 BPM, the “Minimum post-dose Heart Rate … (SD)” value (0.7 mg for 21 days) was 54.20 (4.05) BPM and the “Minimum post-dose Systolic BP, Change from Baseline Mean” value (0.7 mg for 21 days) was −9.70 mmHg. The “Minimum post-dose Systolic BP, Change from Baseline Median” value (0.7 mg for 21 days) was −9.50 mmHg, the “Minimum post-dose Systolic BP, Change from Baseline Min, Max” value (0.7 mg for 21 days) was −16.00 to −1.00 mmHg and the “Minimum post-dose Systolic BP, On Treatment Mean” value (0.7 mg for 21 days) was 96.10 mmHg. For the same molecule, the “Minimum post-dose Diastolic BP, Change from Baseline Mean” value (1.35 mg for 21 days) was −5.20 mmHg, the “Minimum post-dose Diastolic BP, Change from Baseline Median” value (1.35 mg for 21 days) was −7.50 mmHg and the “Minimum post-dose Diastolic BP, Change from Baseline Min, Max” value (1.35 mg for 21 days) was −11.00 to 6.00 mmHg. For the same molecule, the “Minimum post-dose Diastolic BP … (SD)” value (1.35 mg for 21 days) was 53.70 (4.03) mmHg, the “Minimum post-dose Heart Rate, Change from Baseline Mean” value (1.35 mg for 21 days) was −6.20 BPM and the “Minimum post-dose Heart Rate, Change from Baseline Median” value (1.35 mg for 21 days) was −5.00 BPM. For the same molecule, the “Minimum post-dose Heart Rate, Change from Baseline Min, Max” value (1.35 mg for 21 days) was −18.00 to 3.00 BPM, the “Minimum post-dose Heart Rate … (SD)” value (1.35 mg for 21 days) was 54.40 (4.09) BPM and the “Minimum post-dose Systolic BP, Change from Baseline Mean” value (1.35 mg for 21 days) was −8.90 mmHg. The “Minimum post-dose Systolic BP, Change from Baseline Median” value (1.35 mg for 21 days) was −8.00 mmHg, the “Minimum post-dose Systolic BP, Change from Baseline Min, Max” value (1.35 mg for 21 days) was −22.00 to 3.00 mmHg and the “Minimum post-dose Systolic BP, On Treatment Mean” value (1.35 mg for 21 days) was 100.10 mmHg. The “Minimum post-dose Diastolic BP, Change from Baseline Mean” value (2.0 mg for 21 days) was −11.20 mmHg, the “Minimum post-dose Diastolic BP, Change from Baseline Median” value (2.0 mg for 21 days) was −9.00 mmHg and the “Minimum post-dose Diastolic BP, Change from Baseline Min, Max” value (2.0 mg for 21 days) was −21.00 to −4.00 mmHg. For the same molecule, the “Minimum post-dose Diastolic BP … (SD)” value (2.0 mg for 21 days) was 45.30 (7.42) mmHg, the “Minimum post-dose Heart Rate, Change from Baseline Mean” value (2.0 mg for 21 days) was −8.30 BPM and the “Minimum post-dose Heart Rate, Change from Baseline Median” value (2.0 mg for 21 days) was −7.50 BPM. The “Minimum post-dose Heart Rate, Change from Baseline Min, Max” value (2.0 mg for 21 days) was −16.00 to −3.00 BPM, the “Minimum post-dose Heart Rate … (SD)” value (2.0 mg for 21 days) was 51.00 (4.78) BPM and the “Minimum post-dose Systolic BP, Change from Baseline Mean” value (2.0 mg for 21 days) was −9.80 mmHg. The “Minimum post-dose Systolic BP, Change from Baseline Median” value (2.0 mg for 21 days) was −9.00 mmHg, the “Minimum post-dose Systolic BP, Change from Baseline Min, Max” value (2.0 mg for 21 days) was −18.00 to −4.00 mmHg and the “Minimum post-dose Systolic BP, On Treatment Mean” value (2.0 mg for 21 days) was 90.80 mmHg.
